Earlier results as cited in patent US11441198B2 (priority 2016, dated 2022).

What was measured:
influenza virus = conditions: double-blind randomized placebo-controlled trial

| Structure (SMILES) | antiviral activity against influenza viruses (influenza viruses) | symptoms (influenza virus) |
| --- | --- | --- |
| COc1c(C)c2c(c(O)c1C/C=C(\C)CCC(=O)O)C(=O)OC2 [mycophenolic acid] | has antiviral activity | – |
| CC(=O)Oc1ccccc1C(=O)Nc1ncc([N+](=O)[O-])s1 [Nitazoxanide] | – | associated with improvement in symptoms |
